According to patent publication US20250313527A1, “AMPHIPHILIC LIPID INCLUDING TERTIARY AMINE N-OXIDE GROUP, LIPOSOMAL DRUG-DELIVERY SYSTEM, AND USE OF AMPHIPHILIC LIPID” (HANGZHOU TITO BIOTECHNOLOGY PARTNERSHIP ENTERPRISE (LIMITED …, priority 2022, published 2025):

Test: Plasma clearance and tissue distribution (in vivo imaging of DiR fluorescence)
Details: HepG2 tumor-bearing BALB/c nude mice, intravenous injection, FIG. 12 to FIG. 13
Procedure: Female BALB/c nude mice bearing HepG2 subcutaneous tumors (about 70 mm^3) were randomly divided into three groups with 3 mice in each group, and intravenously injected with DiR, ^DiRODML, or ^DiRODEL. 24 h later, blood was collected from the orbital veins of mice. 500 μL of a blood sample was taken and tested by a small animal in vivo imaging instrument for a fluorescence intensity. Mice were dissected, and tissues such as a heart, a liver, a spleen, a lung, a kidney, an intestine, and a tumor were collected. Each tissue was detected by a small animal in vivo imaging instrument for a fluorescence intensity.

DiR fluorescence signal in the blood or tissues: Almost no fluorescence signal
Structure (SMILES): CCCCCCCCCCCCCCCCCCN1/C(=C/C=C/C=C/C=C/C2=[N+](CCCCCCCCCCCCCCCCCC)c3ccccc3C2(C)C)C(C)(C)c2ccccc21.[I-] [DiR]
